In brackets after ≈: the same amount, converted by molar mass. Read-outs that look alike come from different tables or passages of the source. Where only a bound is given, the exact number is not on record here.

Results on seven compounds are retold here after patent US20100137240A1, “USE OF NUCLEOSIDE DERIVATIVES AS ANTI-KOI HERPES VIRUS IN FISH” (Katholieke Universiteit Leuven, priority 2007, published 2010).

The subject of data set [1] is Koi Herpes virus (KHV). The data set can be described thus: Inhibition of Koi Herpes Virus infections in cell culture (plaque / cytopathic effect, crystal violet). The class given is cell-based, Koi herpesvirus (KHV). To be noted: for IC50: Cyprinid herpesvirus 3, 120 h; for effect on KHV replication (in words): in vitro; for concentration resulting in complete inhibition of KHV replication: KHV in CCB cells, five days post infection. Here is the method: KHV inhibitory activity can be readily detected using the assays described herein, as well as other assays known to those of ordinary skill in the art. In general, carp cells are infected with KHV and are incubated with the compounds to be tested for inhibitory activity. A more detailed description is provided in the examples.
(§1) Compounds for testing KHV-antiviral activity were dissolved in dimethylsulfoxide (DMSO) at a concentration of 20 mg/ml, then filtrated through a 0.45 μm filter to obtain a sterile solution. Common carp brain (CCB) cells were grown in minimum essential medium (MEM, commercially available from Invitrogen) containing 4.5 g/l glucose (D-glucose monohydrate, Merck) and 10% fetal calf serum (FCS, commercially available from BioWhittaker). Cells were incubated at 25° C. in a humid atmosphere containing 5% CO2. Confluent cell monolayers grown in 24 wells cluster dishes were inoculated with 200 plaque forming units (PFU) of KHV in 0.2 ml of serum free Dulbecco's Modified Eagle Medium (DMEM, commercially available from Invitrogen). […] Five days post infection (pi), viral plaques or virus induced cytopathic effects were observed by staining cells with a crystal violet (Merck) solution.
as §1, with “Alternatively, PMEDAP was” for “Compounds for testing KHV-antiviral activity were”, “DMEM and propyleneglycol (33.3%)/ethanol(8.3%) (PE buffer) respectively,” for “dimethylsulfoxide (DMSO)”, “10 mg/ml.” for “20 mg/ml, then filtrated through a 0.45 μm filter to obtain a sterile solution.”, “modified eagle medium” for “Modified Eagle Medium”
On the technique in general: Cytopathic effects are the visible damage that an infection or toxin causes in cultured cells.

The test system of data set [2] is koi carps. In words: In vivo koi carps toxicity experiment, intramuscular injection. Further details: species or system koi carps (Cyprinus carpio koi). To be noted: for Microscopic lesions: liver and kidney explants. The protocol: An additional experiment was performed as following: Naive adult koi carps were kept in 60-liter tanks with filtrated water maintained at 23° C. […] (5 koi per group) were treated for 10 consecutive days, by intramuscular injection of 20 mg/kg PMEDAP ((“PMEDAP 20”) or 50 mg/kg PMEDAP (“PMEDAP 50”)) dissolved in 0.1 ml of DMEM. Two other groups (5 koi per group), used as negative controls, were injected with 0.1 ml of DMEM. After 10 days, all fish were examined and weighed. Three fishes of each group were euthanized. Liver and kidney explants were treated for anatomopathology analysis.

Data set [3] concerns koi carps. In words: In vivo koi carps toxicity experiment, intraperitoneal injection. Further details: species or system koi carps (Cyprinus carpio koi). To be noted: 50 mg/kg intraperitoneal, 10 consecutive days. The protocol: Naïve adult koi carps were kept in 150-liter tanks with filtrated water maintained at 23° C. One group (n=12) was treated for 10 consecutive days, by intraperitoneal injection of PMEDAP (50 mg/kg) dissolved in 0.2 ml of DMEM. The other group (n=12), used as negative control, was injected with 0.2 ml DMEM. After 10 days, all fish were examined and weighed. Three fishes of each group were euthanized. Liver and kidney explants were treated for anatomopathology analysis.

In data set [4] the test system is Koi Herpes virus (KHV). The data set can be described thus: Pulse chase treatment with PMEDAP on KHV growth in vitro. The class given is cell-based, Koi herpesvirus (KHV). Conditions: 50 μg/ml PMEDAP for only the first 24 hours post infection, CCB cells, observed 5 days post-infection. The protocol: PMEDAP was dissolved in DMSO at a concentration of 20 mg/ml then filtrated through a 0.45 μm filter. CCB cells were grown in 24-well culture plates in MEM containing 4.5 g/l glucose and 10% FCS. Cells were inoculated with 200 PFU of KHV in 0.2 ml of serum free DMEM. After 2 hours incubation, cells were overlaid with DMEM (4.5 g/l glucose, 10% FCS) containing 50 μg/ml of PMEDAP. Mock-infected cells and untreated infected cells (ND) were included as negative controls. At successive intervals pi, cells were washed twice with PBS then overlaid with complete DMEM. Five days pi, viral plaques were observed by a crystal violet assay.

The subject of the next data set is KHV infections. Conditions: Ilouze et al., FEBS Letters (2006) 580(18) 4473-4478; cited from earlier work.
Where [5] appears, read: KHV (200 PFU) in CCB cells, compounds dissolved in DMSO, read five days post infection, read-out: IC50.
[6] abbreviates: 20 mg/kg intramuscular, 10 consecutive days (PMEDAP 20).
[7] abbreviates: 50 mg/kg intramuscular, 10 consecutive days (PMEDAP 50).

For orientation: IC50 means the midpoint of a concentration-inhibition curve. Consider `O=c1[nH]c(=O)n([C@H]2C[C@H](O)[C@@H](CO)O2)cc1/C=C/Br` [BVDU (brivudin), brivudin], for which, in the data set on Koi Herpes virus (KHV) [1], half-maximal inhibition (IC50) required 100 µg/mL (≈ 300 µM) and the “effect on KHV replication (in words)” value is recorded as “no effect or a very limited effect”.
Turning to `Nc1nc(O)c2ncn(COC(CO)CO)c2n1` [GCV (ganciclovir), ganciclovir], the IC50 with Koi Herpes virus (KHV) [1] (setting [5]) stood at 100 µg/mL (≈ 392 µM). Besides, in the data set with Koi Herpes virus (KHV) [1], the “effect on KHV replication (in words)” value is “no effect or a very limited effect”.
Take `Nc1ccn(C[C@@H](CO)OCP(=O)(O)O)c(=O)n1` [HPMPC, cidofovir]: the IC50 in the data set on Koi Herpes virus (KHV) [1] (setting [5]) was determined as 50 µg/mL (≈ 179 µM). In the data set on Koi Herpes virus (KHV) [1], the “effect on KHV replication (in words)” value is recorded as “no effect or a very limited effect”.
`O=C(O)P(=O)(O)O` [PFA (foscarnet), foscarnet]: the IC50 with Koi Herpes virus (KHV) [1] (setting [5]) is more than 100 µg/mL.
As to `Nc1ncnc2c1ncn2CCOCP(=O)(O)O` [PMEA (adefovir), 9-[2-phosphonylmethoxyethyl]adenine], the IC50 in the data set on Koi Herpes virus (KHV) [1] (setting [5]) was 6.5 µg/mL (≈ 23.8 µM). Besides, the “concentration resulting in complete inhibition of KHV replication” value with Koi Herpes virus (KHV) [1] worked out at 25 µg/mL.
For the compound `Nc1nc(N)c2ncn(CCOCP(=O)(O)O)c2n1` [PMEDAP, 9-(2-phosphonylmethoxyethyl)-2,6-diaminopurine], in the data set on koi carps [2] (setting [6]), the Clinical signs entry is reported as “None”, the “Survival (%)” value was determined as 100% and the Microscopic lesions entry is recorded as “None”. The “Mean final weight” value in the data set on koi carps [2] (20 mg/kg intramuscular, 10 consecutive days (PMEDAP 20), mean initial weight 23.1 g) is 21.3 g. Also, in the data set with koi carps [2] (setting [7]), the Clinical signs entry is “None”, the “Survival (%)” value is recorded as 100% and the Microscopic lesions entry is reported as “None”. The “Mean final weight” value with koi carps [2] (50 mg/kg intramuscular, 10 consecutive days (PMEDAP 50), mean initial weight 16.3 g) worked out at 15.3 g. Also, in the data set on koi carps [3], the Clinical signs entry was “None”; the “Survival (%)” value was found to be 100%; the “mean weight of fishes, PMEDAP versus DMEM” value is on record as “statistically similar”; the “toxic effect (in words)” value is “did not reveal any toxic effect”. In the data set with koi carps [3] (liver and kidney explants), the Microscopic lesions result was “None”. In addition, the “Mean final weight” value in the data set on koi carps [3] (mean initial weight 66.1 g) came out at 71.5 g. Besides, the IC50 in the data set on Koi Herpes virus (KHV) [1] (setting [5]) is 4.8 µg/mL (≈ 16.7 µM). For the same compound, in the data set on Koi Herpes virus (KHV) [1], the “concentration resulting in complete inhibition of KHV replication” value is 12.5 µg/mL and the “effect on KHV replication (in words)” value was “highly active”. The “inhibition of virus induced cytopathic effect” value in the data set on Koi Herpes virus (KHV) [4] is recorded as “complete inhibition”.
Regarding `Nc1nc2c(ncn2COCCO)c(=O)[nH]1` [acyclovir], in the data set on Koi Herpes virus (KHV) [1], the “effect on KHV replication (in words)” value is “no effect or a very limited effect”. The “activity against KHV infections (in words)” value in the data set on KHV infections is “inactive”.
